Converted amounts (≈) assume the structure as drawn.
Columns and labels:
[1] = test system: Staphylococcus epidermidis; assay: Antibacterial activity against Staphylococcus epidermidis ATCC 12228 assessed as inhibition of bacterial growth incubated for 16 to 24 hrs by broth microdilution method; type: functional; conditions: time 16-24 hrs
Bacillus subtilis = assay: Antibacterial activity against Bacillus subtilis ATCC 6633 assessed as inhibition of bacterial growth incubated for 16 to 24 hrs by broth microdilution method; type: functional; conditions: time 16-24 hrs
Enterococcus faecalis [2] = assay: Antibacterial activity against Enterococcus faecalis ATCC 29212 assessed as inhibition of bacterial growth incubated for 16 to 24 hrs by broth microdilution method; type: functional; conditions: time 16-24 hrs
Staphylococcus aureus [3] = assay: Antibacterial activity against methicillin-sensitive Staphylococcus aureus ATCC 25923 assessed as inhibition of bacterial growth incubated for 16 to 24 hrs by broth microdilution method; type: functional; conditions: time 16-24 hrs
Staphylococcus aureus [4] = assay: Antibacterial activity against methicillin-resistant Staphylococcus aureus CIP106760 assessed as inhibition of bacterial growth incubated for 16 to 24 hrs by broth microdilution method; type: functional; conditions: time 16-24 hrs
Enterococcus faecalis [5] = assay: Antibacterial activity against vancomycin-resistant Enterococcus faecalis ATCC 51299 assessed as inhibition of bacterial growth incubated for 16 to 24 hrs by broth microdilution method; type: functional; conditions: time 16-24 hrs
[6] = Toxicity in Artemia salina assessed as mortality at 10 ug/ml measured after 24 hrs; conditions: at 10 µg/mL
Staphylococcus aureus [7] = assay: Antibacterial activity against Staphylococcus aureus ATCC 6538 assessed as inhibition of bacterial growth incubated for 16 to 24 hrs by broth microdilution method; type: functional; conditions: time 16-24 hrs
[8] = Toxicity in Saccharomyces cerevisiae ATCC 2601 assessed as reduction in cell viability measured after 24 hrs by microdilution method; conditions: Saccharomyces cerevisiae, Saccharomyces cerevisiae ATCC 2601 cells
Enterococcus faecalis [9] = assay: Antibacterial activity against Enterococcus faecalis assessed as inhibition of bacterial growth incubated for 16 to 24 hrs by broth microdilution method; type: functional; conditions: time 16-24 hrs
Staphylococcus aureus [10] = assay: Antibacterial activity against Staphylococcus aureus assessed as inhibition of bacterial growth incubated for 16 to 24 hrs by broth microdilution method; type: functional; conditions: time 16-24 hrs
[11] = Antioxidant activity assessed as DPPH radical scavenging activity at 10 ug/ml by DPPH assay relative to control; type: functional; conditions: dose 10.0 µg/ml
Enterococcus faecium = assay: Antibacterial activity against Enterococcus faecium assessed as inhibition of bacterial growth incubated for 16 to 24 hrs by broth microdilution method; type: functional; conditions: time 16-24 hrs
Listeria monocytogenes = assay: Antibacterial activity against Listeria monocytogenes assessed as inhibition of bacterial growth incubated for 16 to 24 hrs by broth microdilution method; type: functional; conditions: time 16-24 hrs
[12] = Cytotoxicity against human HaCaT cells assessed as cell viability at 50 uM after 24 hrs by MTT assay; type: cell-based; conditions: HaCaT cells, read-out: Activity
[13] = test system: Staphylococcus epidermidis; assay: Antibacterial activity against Staphylococcus epidermidis assessed as inhibition of bacterial growth incubated for 16 to 24 hrs by broth microdilution method; type: functional; conditions: time 16-24 hrs
HaCaT = assay: Cytotoxicity against human HaCaT cells assessed as reduction in cell viability at 50 uM after 24 hrs by MTT assay; type: cell-based
MRC5 = assay: Cytotoxicity against human MRC5 cells assessed as reduction in cell viability measured after 24 hrs by MTT assay; type: cell-based; conditions: MRC5, 24 h
[14] = Cytotoxicity against human HaCaT cells assessed as cell viability at 28 uM after 24 hrs by MTT assay; type: cell-based; conditions: read-out: Activity

| Structure (SMILES) | MBC [1] | MIC [1] | MBC (Bacillus subtilis) | MIC (Bacillus subtilis) | MBC (Enterococcus faecalis [2]) | MIC (Enterococcus faecalis [2]) | MBC (Staphylococcus aureus [3]) | MIC (Staphylococcus aureus [3]) | MBC (Staphylococcus aureus [4]) | MIC (Staphylococcus aureus [4]) | MBC (Enterococcus faecalis [5]) | MIC (Enterococcus faecalis [5]) | MBC (Staphylococcus aureus [7]) | MIC (Staphylococcus aureus [7]) | IC50 at 24 h [8] | Activity [11] | further results |
| --- | --- | --- | --- | --- | --- | --- | --- | --- | --- | --- | --- | --- | --- | --- | --- | --- | --- |
| Cc1ccccc1C(c1cc([N+](=O)[O-])ccc1O)N1CCc2cc([N+](=O)[O-])ccc21 (stereo not given) | 4.71 µM (≈ 1.91 µg/mL) | < 1.18 µM | 2.36 µM (≈ 0.957 µg/mL) | < 1.18 µM | 9.64 µM (≈ 3.91 µg/mL) | 1.2 µM (≈ 0.486 µg/mL) | 38.6 µM (≈ 15.6 µg/mL) | 1.2 µM (≈ 0.486 µg/mL) | 4.82 µM (≈ 1.95 µg/mL) | 1.2 µM (≈ 0.486 µg/mL) | 154 µM (≈ 62.4 µg/mL) | 2.41 µM (≈ 0.977 µg/mL) | 9.64 µM (≈ 3.91 µg/mL) | 2.41 µM (≈ 0.977 µg/mL) | 121 µM |  | mortality at 24 h, 10 ug/ml [6]: 3% |
| Cc1ccc(C(c2cc([N+](=O)[O-])ccc2O)N2CCc3cc([N+](=O)[O-])ccc32)cc1 (stereo not given) | 37.7 µM (≈ 15.3 µg/mL) | 18.9 µM (≈ 7.66 µg/mL) | 37.7 µM (≈ 15.3 µg/mL) | 18.9 µM (≈ 7.66 µg/mL) | 9.64 µM (≈ 3.91 µg/mL) | 1.2 µM (≈ 0.486 µg/mL) | 38.6 µM (≈ 15.6 µg/mL) | 1.2 µM (≈ 0.486 µg/mL) | 4.82 µM (≈ 1.95 µg/mL) | 1.2 µM (≈ 0.486 µg/mL) | 154 µM (≈ 62.4 µg/mL) | 2.41 µM (≈ 0.977 µg/mL) | 77.1 µM (≈ 31.3 µg/mL) | 19.3 µM (≈ 7.82 µg/mL) | > 100 µM | 8% | MIC (Enterococcus faecalis [9]): 19.3 µM (≈ 7.81 µg/mL); MIC (Staphylococcus aureus [10]): 9.64 µM (≈ 3.91 µg/mL); MIC (Enterococcus faecium): 9.64 µM (≈ 3.91 µg/mL); MIC (Listeria monocytogenes): 9.64 µM (≈ 3.91 µg/mL); viability at 24 h, 50 µM [12]: 94%; MIC [13]: 9.64 µM (≈ 3.91 µg/mL) |
| O=[N+]([O-])c1ccc2c(c1)CCN2C(c1ccc(C(F)(F)F)cc1)c1cc([N+](=O)[O-])ccc1O (stereo not given) | 2.36 µM (≈ 1.08 µg/mL) | < 1.18 µM | 18.9 µM (≈ 8.68 µg/mL) | 9.43 µM (≈ 4.33 µg/mL) | 8.89 µM (≈ 4.08 µg/mL) | 1.11 µM (≈ 0.51 µg/mL) | 35.6 µM (≈ 16.4 µg/mL) | 2.22 µM (≈ 1.02 µg/mL) | 1.11 µM (≈ 0.51 µg/mL) | 1.11 µM (≈ 0.51 µg/mL) | 142 µM (≈ 65.2 µg/mL) | 4.45 µM (≈ 2.04 µg/mL) |  |  | 292 µM |  | Activity (HaCaT): Toxic; IC50 (MRC5): 5.8 µM |
| Cc1ccc(C(c2cc([N+](=O)[O-])ccc2O)N2CCc3ccccc32)cc1 (stereo not given) |  |  |  |  | 86.7 µM (≈ 31.2 µg/mL) | 10.8 µM (≈ 3.89 µg/mL) | 347 µM (≈ 125 µg/mL) | 21.3 µM (≈ 7.68 µg/mL) | 5.42 µM (≈ 1.95 µg/mL) | 2.71 µM (≈ 0.977 µg/mL) | 173 µM (≈ 62.4 µg/mL) | 21.7 µM (≈ 7.82 µg/mL) | 43.4 µM (≈ 15.6 µg/mL) | 10.8 µM (≈ 3.89 µg/mL) | > 100 µM | > 80% | viability at 24 h, 28 µM [14]: 20% |
| Cc1ccc(C(c2cc([N+](=O)[O-])ccc2O)N2CCc3c(C#N)cccc32)cc1 (stereo not given) | 302 µM (≈ 116 µg/mL) | 37.8 µM (≈ 14.6 µg/mL) | 9.43 µM (≈ 3.63 µg/mL) | 4.71 µM (≈ 1.82 µg/mL) | 42.9 µM (≈ 16.5 µg/mL) | 2.68 µM (≈ 1.03 µg/mL) | 85.8 µM (≈ 33.1 µg/mL) | 10.7 µM (≈ 4.12 µg/mL) | 21.4 µM (≈ 8.25 µg/mL) | 2.68 µM (≈ 1.03 µg/mL) | 172 µM (≈ 66.3 µg/mL) | 5.36 µM (≈ 2.07 µg/mL) | 40.5 µM (≈ 15.6 µg/mL) | 20.3 µM (≈ 7.82 µg/mL) |  | 19% |  |
| Cc1ccccc1C(c1cc([N+](=O)[O-])ccc1O)N1CCc2c(C#N)cccc21 (stereo not given) | 18.9 µM (≈ 7.28 µg/mL) | 2.36 µM (≈ 0.91 µg/mL) | 18.9 µM (≈ 7.28 µg/mL) | 4.71 µM (≈ 1.82 µg/mL) | 81.1 µM (≈ 31.3 µg/mL) | 5.07 µM (≈ 1.95 µg/mL) | 81.1 µM (≈ 31.3 µg/mL) | 10.1 µM (≈ 3.89 µg/mL) | 20.3 µM (≈ 7.82 µg/mL) | 5.07 µM (≈ 1.95 µg/mL) | 162 µM (≈ 62.4 µg/mL) | 10.1 µM (≈ 3.89 µg/mL) | 20.3 µM (≈ 7.82 µg/mL) | 5.07 µM (≈ 1.95 µg/mL) |  |  |  |
| Cc1ccc(C(c2cc([N+](=O)[O-])ccc2O)N2CCc3cc(Cl)ccc32)cc1 (stereo not given) | 37.7 µM (≈ 14.9 µg/mL) | 75.4 µM (≈ 29.8 µg/mL) | 151 µM (≈ 59.6 µg/mL) | 37.7 µM (≈ 14.9 µg/mL) | 9.19 µM (≈ 3.63 µg/mL) | 1.15 µM (≈ 0.454 µg/mL) | 36.8 µM (≈ 14.5 µg/mL) | 2.3 µM (≈ 0.908 µg/mL) | 4.59 µM (≈ 1.81 µg/mL) | 1.15 µM (≈ 0.454 µg/mL) | 9.19 µM (≈ 3.63 µg/mL) | 2.3 µM (≈ 0.908 µg/mL) | < 158 µM | 19.8 µM (≈ 7.82 µg/mL) |  | > 80% |  |
| Cc1ccc(C(c2cc([N+](=O)[O-])ccc2O)N2CCc3cc(Br)ccc32)cc1 (stereo not given) | 4.71 µM (≈ 2.07 µg/mL) | 9.43 µM (≈ 4.14 µg/mL) | 9.43 µM (≈ 4.14 µg/mL) | 4.71 µM (≈ 2.07 µg/mL) | 81.1 µM (≈ 35.6 µg/mL) | 5.07 µM (≈ 2.23 µg/mL) | 81.1 µM (≈ 35.6 µg/mL) | 10.1 µM (≈ 4.44 µg/mL) | 20.3 µM (≈ 8.92 µg/mL) | 5.07 µM (≈ 2.23 µg/mL) | 162 µM (≈ 71.2 µg/mL) | 10.1 µM (≈ 4.44 µg/mL) | < 142 µM | 17.8 µM (≈ 7.82 µg/mL) |  | > 80% |  |
